From patent US20110003778A1, “MINERALCORTICOID RECEPTOR ANTAGONISTS FOR THE TREATMENT OF ENDOMETRIOSIS” (Bayer Schering Pharma Aktiengesellschaft, priority 2007, published 2011)
Entries after “also recorded” stand apart in the source; their conditions may differ.

Tests used:
endometriotic lesions [1] = assay: Endometriosis model in rhesus macaques: uterus weight and weights/size of endometrial lesions after 60 days of treatment; format: in vivo
Experimental: (§1) The activity of the mineralcorticoid receptor antagonist spironolactone was tested in an endometriosis model in non-human primates. Non-human primates are the only species apart from man where endometriosis occurs spontaneously under natural conditions. They are therefore the most relevant model for examining this disorder. […] In this procedure, the animals are given a depot for estradiol substitution which keeps the serum level at 80 to 100 pg/ml. In this manner, it is ensured that the endometriotic lesions are exposed to physiological concentrations of estradiol. By virtue of the depot, interindividual variations of the hormone concentrations and their effect on the results can be excluded. After the treatment, the size of the endometrium lesions was determined, and the proliferation of these lesions was detected by a histological analysis. […] In an autologous transplantation, a plurality of lesions from endometrium tissue were implanted subcutaneously and intraperitoneally/abdominally into rhesus macaques.

endometriotic lesions [2] = assay: Rate of proliferation of endometrial lesions in the rhesus macaque endometriosis model (Ki67 staining, BrDU incorporation); format: in vivo, rhesus macaques; details: abdominal lesions, secretory cells; 60 days spironolactone vs control; FIG. 3
Experimental: as §1, with “Accordingly, the mineralcorticoid receptor antagonist spironolactone has” for “In an autologous transplantation,”, “positive effect on endometriosis genesis.” for “plurality of lesions from endometrium tissue were implanted subcutaneously and intraperitoneally/abdominally into rhesus macaques.”
Examination of the rate of proliferation of endometrial lesions in an endometriosis model in rhesus macaques after treatment with spironolactone.
Both detection of cell division in the endometriotic lesions by Ki67 (top row) and by incorporation of BrDU (bottom row) show a reduced value in the animals treated with spironolactone (control, left, compared to spironolactone, right).

[3] = after 60 days of treatment, macaque model, n = 4

Row | Compound | Intraabdominal lesion wt (endometriotic lesions [1]; [3]) | Subcutaneous lesion wt (endometriotic lesions [1]; [3]) | Uterus wt (endometriotic lesions [1]; [3]) | size of the endometriotic lesions compared to control animals (endometriotic lesions [1]; 60 days estradiol + spironolactone 30 mg/kg/day vs estradiol control) | effect on the uterus as such (endometriotic lesions [1]; 60 days estradiol + spironolactone vs estradiol control) | weight of subcutaneous and intraperitoneal/abdominal lesions after treatment (in words) (endometriotic lesions [1]; 60 days estradiol + spironolactone vs estradiol control, both types of lesions) | proliferation in the lesions by bromodeoxyuridine (BrDU) incorporation (endometriotic lesions [2]) | proliferation in the lesions by staining of the mitotic antigen Ki67 (endometriotic lesions [2])
1 | C[C@]12CC[C@@H]3c4ccc(O)cc4CC[C@H]3[C@@H]1CC[C@@H]2O [E2, estradiol] | 0.068 + 0.11 g | 0.039 ± 0.008 g | 3.75 ± 0.496 g | – | – | – | – | –
2 | CC(=O)S[C@@H]1CC2=CC(=O)CC[C@]2(C)[C@H]2CC[C@@]3(C)[C@@H](CC[C@@]34CCC(=O)O4)[C@H]12 [spironolactone] | – | – | – | significant reduction of the endometriotic lesions | no significant effect | reduction in weight | reduction of proliferation; also recorded: strongly reduced; also recorded: reduced value | reduction of proliferation; also recorded: strongly reduced; also recorded: reduced value
